Experimental data as given in the supplement of paper PMC10307832.

Columns and labels:
Experiment in all cases: relative viability (nuclei count vs DMSO), 5 days (fraction); higher = more cells survive
Selumetinib + Vorinostat = compound: Cn1cnc2c(F)c(Nc3ccc(Br)cc3Cl)c(C(=O)NOCCO)cc21 [Selumetinib] + O=C(CCCCCCC(=O)Nc1ccccc1)NO [Vorinostat] (partner 1 µM)
Method in brief: (§1)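 Relative viability is defined as nuclei in treated wells over nuclei in vehicle wells. Duplicate plates were run and medians reported. Lung cancer cell lines in 1536-well plates were dosed by pin tool one day after seeding, with one drug or with a fixed anchor-drug dose plus five library-drug doses (not always all listed) in √10 steps, and nuclei were counted after 5 days.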

Selumetinib + Trametinib = compound: Cn1cnc2c(F)c(Nc3ccc(Br)cc3Cl)c(C(=O)NOCCO)cc21 [Selumetinib] + CC(=O)Nc1cccc(-n2c(=O)n(C3CC3)c(=O)c3c(Nc4ccc(I)cc4F)n(C)c(=O)c(C)c32)c1 [Trametinib] (partner 0.02 µM)
Method in brief: as §1

Selumetinib + Pictilisib = compound: Cn1cnc2c(F)c(Nc3ccc(Br)cc3Cl)c(C(=O)NOCCO)cc21 [Selumetinib] + CS(=O)(=O)N1CCN(Cc2cc3nc(-c4cccc5[nH]ncc45)nc(N4CCOCC4)c3s2)CC1 [Pictilisib] (partner 1 µM)
Method in brief: as §1

Venetoclax + Phenformin = compound: CC1(C)CCC(CN2CCN(c3ccc(C(=O)NS(=O)(=O)c4ccc(NCC5CCOCC5)c([N+](=O)[O-])c4)c(Oc4cnc5[nH]ccc5c4)c3)CC2)=C(c2ccc(Cl)cc2)C1 [Venetoclax] + N=C(N)NC(=N)NCCc1ccccc1 [Phenformin] (partner 250 µM)
Method in brief: as §1

Cell Line	relative viability (Selumetinib + Vorinostat; first compound 0.02 µM)	relative viability (Selumetinib + Vorinostat; first compound 0.06325 µM)	relative viability (Selumetinib + Vorinostat; first compound 0.2 µM)	relative viability (Selumetinib + Vorinostat; first compound 0.6325 µM)	relative viability (Selumetinib + Trametinib; first compound 0.02 µM)	relative viability (Selumetinib + Trametinib; first compound 0.06325 µM)	relative viability (Selumetinib + Trametinib; first compound 0.2 µM)	relative viability (Selumetinib + Trametinib; first compound 0.6325 µM)	relative viability (Selumetinib + Pictilisib; first compound 0.02 µM)	relative viability (Selumetinib + Pictilisib; first compound 0.06325 µM)	relative viability (Selumetinib + Pictilisib; first compound 0.2 µM)	relative viability (Selumetinib + Pictilisib; first compound 0.6325 µM)	relative viability (Venetoclax + Phenformin; first compound 0.01 µM)	relative viability (Venetoclax + Phenformin; first compound 0.03162 µM)	relative viability (Venetoclax + Phenformin; first compound 0.1 µM)	relative viability (Venetoclax + Phenformin; first compound 0.3162 µM)	relative viability (Venetoclax + Phenformin; first compound 1 µM)
NCI-H1915	0.598	0.492	0.504	0.377	0.311	0.302	0.288	0.257	0.889	0.716	0.454	0.448	0.362	0.385	0.354	0.376	0.375
NCI-H441	0.843	0.868	0.783	0.778	0.457	0.429	0.573	0.455	0.472	0.363	0.306	0.292	0.83	0.706	0.787	0.805	0.868
RERF-LC-KJ	0.649	0.656	0.629	0.637	0.911	0.858	0.887	0.981	0.527	0.476	0.44	0.504	0.382	0.414	0.418	0.458	0.442
NCI-H3122	0.988	0.651	0.84	0.651	0.202	0.212	0.199	0.266	0.396	0.298	0.206	0.211	0.366	0.361	0.341	0.339	0.282
NCI-H2347	0.521	0.467	0.36	0.283	0.264	0.294	0.287	0.278	0.641	0.314	0.239	0.258	0.316	0.449	0.433	0.424	0.33
NCI-H1651	0.554	0.552	0.564	0.572	0.854	0.85	0.835	0.87	0.536	0.51	0.511	0.522	0.373	0.327	0.287	0.329	0.342
NCI-H1793	0.512	0.422	0.445	0.365	0.424	0.414	0.443	0.436	0.288	0.286	0.314	0.28	0.457	0.354	0.271	0.36	0.303
EKVX	0.557	0.531	0.446	0.384	0.308	0.325	0.344	0.32	0.395	0.391	0.317	0.243	0.229	0.236	0.223	0.239	0.233
NCI-H1437	0.749	0.7	0.576	0.429	0.558	0.546	0.516	0.528	0.237	0.178	0.157	0.149	0.377	0.348	0.266	0.34	0.296
NCI-H23	0.649	0.561	0.557	0.668	0.4	0.402	0.322	0.331	0.484	0.344	0.352	0.29	0.762	0.751	0.815	0.8	0.719
EPLC-272H	0.312	0.343	0.3	0.256	0.275	0.277	0.263	0.259	0.299	0.253	0.245	0.208	0.353	0.312	0.286	0.321	0.295
NCI-H358	0.422	0.335	0.265	0.248	0.125	0.134	0.121	0.11	0.316	0.302	0.314	0.277	0.369	0.291	0.282	0.406	0.325
H3255	0.671	0.752	0.846	0.797	0.586	0.583	0.601	0.54	0.434	0.462	0.38	0.36	0.407	0.43	0.348	0.345	0.414
SK-LU-1	0.779	0.717	0.686	0.443	0.522	0.442	0.424	0.412	0.618	0.493	0.459	0.258	0.537	0.613	0.526	0.531	0.505
NCI-H727	1.01	0.741	0.709	0.553	0.348	0.367	0.421	0.381	0.309	0.214	0.155	0.234	0.509	0.63	0.504	0.625	0.526
